# Key:
# [1] = tested on: Brachiaria; test: Pre-emergence test (Example B2); type: in vivo; conditions: 34 days
# Text: (§1) The expected herbicidal action E for a given combination of two herbicides can be calculated as follows (see COLBY, S.R., "Calculating synergistic and antagonistic response of herbicide combinations", Weeds 15, pages 20-22, 1967): E = X +(Y • (100 - X))/(100) [formula]
# (§2) In the above formula: X = percentage growth inhibition in the case of treatment with the compound of formula A at a rate of application of p kg per hectare compared with the untreated control (= 0 %). Y = percentage herbicidal action in the case of treatment with one of the mixing partners at a rate of application of q kg per hectare compared with the untreated control. E = Expected herbicidal action (percentage herbicidal action compared with the untreated control) after treatment with the compounds of formulae A and the mixing partners at a rate of application of p + q kg of active ingredient per hectare.
# (§3) The test plants are sown in plastics pots in standard soil. Directly after sowing the test compounds are applied by spraying, separately or in admixture, in the form of an aqueous suspension of the test compounds (Formulation Example F8, c) and d)) or in the form of an emulsion concentrate (Formulation Example F1, d)) in 500 l of water/ha. The rates of application conform to the optimum concentrations ascertained under field conditions and greenhouse conditions. The test plants are then cultivated in the greenhouse under optimum conditions. After 34 days' (Tables B2 to B5) and 41 days' (Table B6) test duration, the test is evaluated (% action, 100 % = plants have died, 0 % = no phytotoxic action). From 61 to 80 % (especially from 81 to 100 %) phytotoxicity indicates good to very good herbicidal action in weeds; from 0 to 15 % (especially from 0 to 5 %) phytotoxicity indicates good to very good tolerance in useful plants.
# [2] = tested on: Maize; test: Pre-emergence test (Example B2), tolerance of useful plant; type: in vivo
# Text: as §3
# [3] = tested on: Abutilon; test: Pre-emergence test (Example B2); type: in vivo
# Text: as §1, §2, §3
# (§4) Test plants: abutilon, bidens, euphorbia, ipomoea, sesbamia, xanthium, rottboellia, sida, Sorghum bicolor.
# [4] = tested on: Sida; test: Pre-emergence test (Example B2); type: in vivo
# Text: as §1, §2, §3, §4
# [5] = tested on: Euphorbia; test: Pre-emergence test (Example B2); type: in vivo
# Text: as §1, §2, §3, §4
# [6] = tested on: Xanthium; test: Pre-emergence test (Example B2); type: in vivo; conditions: 34 days
# Text: as §1, §2, §3, §4
# [7] = tested on: Ipomoea; test: Pre-emergence test (Example B2); type: in vivo
# Text: as §1, §2, §3, §4
# [8] = tested on: Bidens; test: Pre-emergence test (Example B2); type: in vivo; conditions: 34 days
# Text: as §1, §2, §3, §4
# [9] = tested on: Sesbania; test: Pre-emergence test (Example B2); type: in vivo; conditions: 34 days
# Text: as §1, §2, §3, §4
# [10] = tested on: Sorghum bic.; test: Pre-emergence test (Example B2); type: in vivo, Sorghum bicolor; conditions: 8 g active ingredient/ha, 41 days
# Text: as §1, §2
# The test plants are sown in plastics pots in standard soil. Directly after sowing the test compounds are applied by spraying, separately or in admixture, in the form of an aqueous suspension of the test compounds (Formulation Example F8, c) and d)) or in the form of an emulsion concentrate (Formulation Example F1, d)) in 500 l of water/ha. […] After 34 days' (Tables B2 to B5) and 41 days' (Table B6) test duration, the test is evaluated (% action, 100 % = plants have died, 0 % = no phytotoxic action). […]
# [11] = tested on: Maize; test: Breakdown in treated useful plants; conditions: after application of the compositions; especially maize; compared with metolachlor
# [12] = tested on: Cyperus; test: Post-emergence test (Example B1); type: in vivo; conditions: 24 days
# Text: as §1
# In the above formula: X = percentage growth inhibition in the case of treatment with the compound of formula A at a rate of application of p kg per hectare compared with the untreated control (= 0 %). Y = percentage herbicidal action in the case of treatment with one of the mixing partners at a rate of application of q kg per hectare compared with the untreated control.
# (§5) The test plant seeds are grown to the 4- to 6-leaf stage under greenhouse conditions in plastics pots. The culture substrate used is a standard soil. At the 4- to 6-leaf stage the herbicides are applied separately and in admixture to the test plants. The test compounds are applied in the form of an aqueous suspension (Formulation Example F8, c)) in 500 l of water/ha. The rates of application conform to the optimum concentrations ascertained under field conditions and greenhouse conditions. Evaluation of the tests is carried out after 24 days.
# (§6) Test plants: brachiaria, cyperus, digitaria, echinochloa, panicum.
# [13] = tested on: Digitaria; test: Post-emergence test (Example B1); type: in vivo; conditions: 24 days
# Text: as §1, §2
# as §5, with “days. The following linear scale is used as a measure (% action): • 100 % = plants have died • 50 % = moderate action • 0 % = no phytotoxic action (as untreated control).” for “days.”
# as §6
# [14] = tested on: Brachiaria; test: Post-emergence test (Example B1); type: in vivo; conditions: 24 days
# Text: as §1, §2
# as §5, with “days. The following linear scale is used as a measure (% action): • 100 % = plants have died • 50 % = moderate action • 0 % = no phytotoxic action (as untreated control).” for “days.”
# as §6
# [15] = tested on: Echinochloa; test: Post-emergence test (Example B1); type: in vivo; conditions: 24 days
# Text: as §1, §2
# as §5, with “days. The following linear scale is used as a measure (% action): • 100 % = plants have died • 50 % = moderate action • 0 % = no phytotoxic action (as untreated control).” for “days.”
# as §6
# [16] = tested on: Panicum; test: Post-emergence test (Example B1); type: in vivo; conditions: 24 days
# Text: as §1, §2
# as §5, with “days. The following linear scale is used as a measure (% action): • 100 % = plants have died • 50 % = moderate action • 0 % = no phytotoxic action (as untreated control).” for “days.”
# as §6
# [17] = tested on: Rottboellia; test: Pre-emergence test (Example B2); type: in vivo
# Text: as §1, §2, §3, §4
# [18] = 150 g active ingredient/ha, 34 days
# [19] = 300 g active ingredient/ha, 34 days
# [20] = 600 g active ingredient/ha, 34 days
# [21] = 125 g active ingredient/ha, 34 days
# [22] = 250 g active ingredient/ha, 34 days
# [23] = 500 g active ingredient/ha, 34 days
# [24] = 8 g active ingredient/ha, 41 days
# [25] = 15 g active ingredient/ha, 34 days
# [26] = 15 g active ingredient/ha, 41 days
# [27] = 30 g active ingredient/ha, 34 days
# [28] = 60 g active ingredient/ha, 34 days
# [29] = 60 g active ingredient/ha, 41 days
# [30] = 30 g active ingredient/ha, 41 days
smiles,measurement,setting,value
"CCc1cccc(C)c1N(C(=O)CCl)[C@@H](C)COC [Met-S, aRS,1'S(-)-N-(1'-methyl-2'-methoxyethyl)-N-chloroacetyl-2-ethyl-6-methylaniline]","Herbicidal activity, Weed: Brachiaria",[1]; 150 g active ingredient/ha,20%
same,"Herbicidal activity, Weed: Brachiaria",[1]; 300 g active ingredient/ha,50%
same,"Herbicidal activity, Useful plant: Maize",[2]; [18],0%
same,"Herbicidal activity, Useful plant: Maize",[2]; [19],10%
same,"Herbicidal activity, Useful plant: Maize",[2]; [20],10%
same,"Herbicidal activity, Weed: Abutilon",[3]; [18],0%
same,"Herbicidal activity, Weed: Abutilon",[3]; [19],10%
same,"Herbicidal activity, Weed: Sida",[4]; [18],0%
same,"Herbicidal activity, Weed: Sida",[4]; [19],40%
same,"Herbicidal activity, Weed: Euphorbia",[5]; [18],0%
same,"Herbicidal activity, Weed: Euphorbia",[5]; [19],0%
same,"Herbicidal activity, Weed: Euphorbia",[5]; [20],0%
same,"Herbicidal activity, Weed: Xanthium",[6]; 300 g active ingredient/ha,0%
same,"Herbicidal activity, Weed: Xanthium",[6]; 600 g active ingredient/ha,20%
"CCNc1nc(Cl)nc(NC(C)C)n1 [Atra, atrazine]","Herbicidal activity, Useful plant: Maize",[2]; [21],0%
same,"Herbicidal activity, Useful plant: Maize",[2]; [22],0%
same,"Herbicidal activity, Useful plant: Maize",[2]; [23],0%
same,"Herbicidal activity, Weed: Abutilon",[3]; [21],0%
same,"Herbicidal activity, Weed: Abutilon",[3]; [23],98%
same,"Herbicidal activity, Weed: Ipomoea",[7]; [21],0%
same,"Herbicidal activity, Weed: Ipomoea",[7]; [22],70%
same,"Herbicidal activity, Weed: Euphorbia",[5]; [21],0%
same,"Herbicidal activity, Weed: Bidens",[8]; 125 g active ingredient/ha,60%
same,"Herbicidal activity, Weed: Xanthium",[6]; 250 g active ingredient/ha,0%
same,"Herbicidal activity, Weed: Xanthium",[6]; 500 g active ingredient/ha,95%
"CCNc1nc(Cl)nc(NC(C)(C)C)n1 [Terb, terbuthylazine]","Herbicidal activity, Useful plant: Maize",[2]; [21],0%
same,"Herbicidal activity, Useful plant: Maize",[2]; [22],0%
same,"Herbicidal activity, Useful plant: Maize",[2]; [23],0%
same,"Herbicidal activity, Weed: Abutilon",[3]; [22],30%
same,"Herbicidal activity, Weed: Abutilon",[3]; [23],90%
same,"Herbicidal activity, Weed: Ipomoea",[7]; [21],0%
same,"Herbicidal activity, Weed: Ipomoea",[7]; [23],95%
same,"Herbicidal activity, Weed: Euphorbia",[5]; [21],40%
same,"Herbicidal activity, Weed: Euphorbia",[5]; [22],70%
same,"Herbicidal activity, Weed: Euphorbia",[5]; [23],95%
same,"Herbicidal activity, Weed: Sesbania",[9]; 250 g active ingredient/ha,80%
same,"Herbicidal activity, Weed: Bidens",[8]; 125 g active ingredient/ha,0%
same,"Herbicidal activity, Weed: Bidens",[8]; 250 g active ingredient/ha,60%
C=CCOC(=O)C(C)(C)OC(=O)c1cc(-n2c(=O)cc(C(F)(F)F)n(C)c2=O)ccc1Cl [A],"Herbicidal activity, Weed: Sorghum bic.",[10],0%
same,"Herbicidal activity, Weed: Brachiaria",[1]; 60 g active ingredient/ha,60%
same,breakdown in the useful plants treated,[11],broken down more rapidly
same,"Herbicidal activity, Weed: Cyperus",[12]; 50 g active ingredient/ha,50%
same,"Herbicidal activity, Weed: Cyperus",[12]; 100 g active ingredient/ha,60%
same,"Herbicidal activity, Weed: Digitaria",[13]; 50 g active ingredient/ha,85%
same,"Herbicidal activity, Weed: Digitaria",[13]; 100 g active ingredient/ha,90%
same,"Herbicidal activity, Weed: Digitaria",[13]; 200 g active ingredient/ha,90%
same,"Herbicidal activity, Weed: Brachiaria",[14]; 100 g active ingredient/ha,10%
same,"Herbicidal activity, Weed: Brachiaria",[14]; 200 g active ingredient/ha,15%
same,"Herbicidal activity, Weed: Echinochloa",[15]; 100 g active ingredient/ha,15%
same,"Herbicidal activity, Weed: Echinochloa",[15]; 200 g active ingredient/ha,45%
same,"Herbicidal activity, Weed: Panicum",[16]; 50 g active ingredient/ha,50%
same,"Herbicidal activity, Weed: Panicum",[16]; 200 g active ingredient/ha,70%
same,"Herbicidal activity, Useful plant: Maize",[2]; [24],0%
same,"Herbicidal activity, Useful plant: Maize",[2]; [25],0%
same,"Herbicidal activity, Useful plant: Maize",[2]; [26],0%
same,"Herbicidal activity, Useful plant: Maize",[2]; [27],10%
same,"Herbicidal activity, Useful plant: Maize",[2]; [28],10%
same,"Herbicidal activity, Useful plant: Maize",[2]; [29],40%
same,"Herbicidal activity, Weed: Abutilon",[3]; [24],50%
same,"Herbicidal activity, Weed: Abutilon",[3]; [25],20%
same,"Herbicidal activity, Weed: Abutilon",[3]; [26],80%
same,"Herbicidal activity, Weed: Abutilon",[3]; [27],40%
same,"Herbicidal activity, Weed: Sida",[4]; [24],40%
same,"Herbicidal activity, Weed: Sida",[4]; [25],80%
same,"Herbicidal activity, Weed: Ipomoea",[7]; [27],20%
same,"Herbicidal activity, Weed: Ipomoea",[7]; [30],0%
same,"Herbicidal activity, Weed: Ipomoea",[7]; [28],30%
same,"Herbicidal activity, Weed: Euphorbia",[5]; [25],0%
same,"Herbicidal activity, Weed: Euphorbia",[5]; [26],85%
same,"Herbicidal activity, Weed: Euphorbia",[5]; [27],90%
same,"Herbicidal activity, Weed: Sesbania",[9]; 60 g active ingredient/ha,50%
same,"Herbicidal activity, Weed: Bidens",[8]; 15 g active ingredient/ha,20%
same,"Herbicidal activity, Weed: Bidens",[8]; 30 g active ingredient/ha,30%
same,"Herbicidal activity, Weed: Bidens",[8]; 60 g active ingredient/ha,90%
same,"Herbicidal activity, Weed: Xanthium",[6]; 15 g active ingredient/ha,0%
same,"Herbicidal activity, Weed: Xanthium",[6]; 30 g active ingredient/ha,0%
same,"Herbicidal activity, Weed: Xanthium",[6]; 60 g active ingredient/ha,20%
same,"Herbicidal activity, Weed: Rottboellia",[17]; [30],80%
same,"Herbicidal activity, Weed: Rottboellia",[17]; [28],30%
same,"Herbicidal activity, Weed: Rottboellia",[17]; [29],70%

# — patent EP0888055B1, “HERBICIDAL COMPOSITION AND METHOD OF WEED CONTROL” (Novartis AG, priority 1996, dated 1997)
